Here are results for two molecules from patent US10155802B2, “Locally-active anticoagulants and anti-inflammatory agents” (priority 2011, dated 2018).

A short description of data set [1]: Thermal unfolding of hairpin linkers (Tm, unfolded population punfold). In kind it is physicochemical. The following applies: calculated, two-state unfolding. From the text: Assuming a two-state unfolding of the trpzip linkers, the unfolded populations punfold=popen (Table 3) can be calculated using reported thermal characteristics of isolated trpzip peptides (Cochran 2001). It is important (Cochran 2001) to take into consideration bulk temperature dependences of the enthalpy and entropy differences between folded and unfolded states of trpzip peptides (Privalov 1997). Disregard for the appreciable ΔCp difference between folded and unfolded species would lead to particularly large underestimation of punfold for BTI5, since the bulk temperatures used for Ki determination were far from the trpzip4 folding transition point.
The punfold value for the BTI2 inhibitor was calculated using ΔH=11.6 kcal/mol and ΔS=39 cal/mol/K obtained in earlier studies of the gb1 peptide (Munoz 1997), which gives punfold values of 0.44 and 0.69 at 21° C. and 37° C., respectively. […] (Table 3). More importantly, all the KD values are close to those of BTI1 which contains a flexible (or random-coil) (GS)8 linker, which confirms the predicted small variation in KD values for bivalent ligands connected by flexible linkers of equal contour length and similar composition (Zhou 2001a; Zhou, 2001b).

For the next data set, the target named is T1, Human α-thrombin (Homo sapiens, UniProt P00734).
T1 construct: Human α-thrombin was purchased from Haemotologic Technologies, Inc., VT, USA; purchased Haemotologic Technologies, Inc., VT, USA
The data set is described as follows: Inhibition of thrombin-catalyzed hydrolysis of chromogenic substrate S-2366 (inhibition constant Ki). In kind it is biochemical. The following applies: for Kd: KD (dissociation constant of open species = Ki x popen); for Ki: pH 7.6.

The next data set concerns the target T2, rat-tail collagen type I (Rattus norvegicus, UniProt P02454+P02466).
T2 construct: purchased BD Bioscience; host or cells: rat tail (tissue-derived)
The data set is described as follows: Peptide-collagen binding by reduction of collagen fibril alignment (deuterium coupling constant). The following applies: collagen gelation under magnetic field in presence of peptide. From the text: High-resolution proton NMR spectroscopy is used to illustrate the behavior of the linker peptides […] (SEQ ID NO: 2 or gb1), […] (SEQ ID NO: 3 or trpzip6), […] (SEQ ID NO: 4 or trpzip5) and […] (SEQ ID NO: 5 or trpzip4) in aqueous solutions. The peptides were synthesized using standard Fmoc chemistry and purified by reverse-phase HPLC. Their identity was confirmed by mass-spectroscopy and NMR spectroscopy. For NMR studies, a volume of (400-X) μL of a peptide dissolved in pure water was mixed with 50 μL of a 10×PBS (phosphate-buffered saline) supplemented by sodium phosphate to a final concentration of 50 mM and with 50 μL of deuterated water (D2O) to form the reference sample (where X=0) and with a certain volume (X μL) of rat-tail collagen type I (at 3.6 to 4 mg/ml in 0.02 N acetic acid from BD Bioscience), (where X is adjusted to achieve the desired final concentration of collagen), with 50 μL of the 10× modified PBS and with 50 μL of deuterated water (D2O) to form the peptide-collagen complex. The pH value of the reference peptide samples was adjusted to match the pH of the final peptide-collagen complex in order to facilitate NMR spectral comparison.
The peptide-collagen solutions were subjected to gelation under magnetic field guidance (see Example 7) followed by the measurement of fibril alignment (Ma 2008) as a semi-quantitative indication of peptide-collagen binding. […]

The conditions of data set [2]: estimated (Cochran 2001), cited from earlier work.

A word on the Kd: it is the equilibrium constant for the complex coming apart. For orientation: Ki means the dissociation constant of the complex between target and ligand, obtained from inhibition or displacement.

Like-named read-outs stand apart in the source and are kept apart here. No end group written: not given here.

T2 sequence (P02454 152-1207): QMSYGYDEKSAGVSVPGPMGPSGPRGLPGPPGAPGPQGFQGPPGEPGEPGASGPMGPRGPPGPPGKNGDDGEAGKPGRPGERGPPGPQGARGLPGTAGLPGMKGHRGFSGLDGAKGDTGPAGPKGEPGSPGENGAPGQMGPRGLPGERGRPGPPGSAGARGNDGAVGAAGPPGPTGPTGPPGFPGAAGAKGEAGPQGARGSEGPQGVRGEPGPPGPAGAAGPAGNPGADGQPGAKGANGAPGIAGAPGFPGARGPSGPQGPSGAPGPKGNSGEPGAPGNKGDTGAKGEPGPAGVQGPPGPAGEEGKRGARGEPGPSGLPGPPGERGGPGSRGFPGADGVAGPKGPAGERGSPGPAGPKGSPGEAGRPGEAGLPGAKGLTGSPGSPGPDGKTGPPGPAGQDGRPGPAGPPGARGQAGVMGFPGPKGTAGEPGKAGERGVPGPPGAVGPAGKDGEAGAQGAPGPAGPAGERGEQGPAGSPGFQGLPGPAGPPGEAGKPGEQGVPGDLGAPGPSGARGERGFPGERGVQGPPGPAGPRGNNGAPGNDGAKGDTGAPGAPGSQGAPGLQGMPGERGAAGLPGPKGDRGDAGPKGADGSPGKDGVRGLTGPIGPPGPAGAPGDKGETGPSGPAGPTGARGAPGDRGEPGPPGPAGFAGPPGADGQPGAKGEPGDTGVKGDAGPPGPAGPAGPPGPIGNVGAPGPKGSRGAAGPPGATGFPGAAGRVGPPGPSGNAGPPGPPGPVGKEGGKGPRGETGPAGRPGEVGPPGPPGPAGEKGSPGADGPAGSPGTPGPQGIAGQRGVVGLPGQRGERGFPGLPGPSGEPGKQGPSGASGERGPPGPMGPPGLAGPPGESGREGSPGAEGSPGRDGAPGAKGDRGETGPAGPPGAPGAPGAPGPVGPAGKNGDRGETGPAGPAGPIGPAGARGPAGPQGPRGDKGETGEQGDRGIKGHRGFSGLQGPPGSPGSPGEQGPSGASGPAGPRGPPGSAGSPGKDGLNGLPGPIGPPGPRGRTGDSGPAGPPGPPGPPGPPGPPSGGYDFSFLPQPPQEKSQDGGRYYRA
T2 sequence (P02466 86-1125): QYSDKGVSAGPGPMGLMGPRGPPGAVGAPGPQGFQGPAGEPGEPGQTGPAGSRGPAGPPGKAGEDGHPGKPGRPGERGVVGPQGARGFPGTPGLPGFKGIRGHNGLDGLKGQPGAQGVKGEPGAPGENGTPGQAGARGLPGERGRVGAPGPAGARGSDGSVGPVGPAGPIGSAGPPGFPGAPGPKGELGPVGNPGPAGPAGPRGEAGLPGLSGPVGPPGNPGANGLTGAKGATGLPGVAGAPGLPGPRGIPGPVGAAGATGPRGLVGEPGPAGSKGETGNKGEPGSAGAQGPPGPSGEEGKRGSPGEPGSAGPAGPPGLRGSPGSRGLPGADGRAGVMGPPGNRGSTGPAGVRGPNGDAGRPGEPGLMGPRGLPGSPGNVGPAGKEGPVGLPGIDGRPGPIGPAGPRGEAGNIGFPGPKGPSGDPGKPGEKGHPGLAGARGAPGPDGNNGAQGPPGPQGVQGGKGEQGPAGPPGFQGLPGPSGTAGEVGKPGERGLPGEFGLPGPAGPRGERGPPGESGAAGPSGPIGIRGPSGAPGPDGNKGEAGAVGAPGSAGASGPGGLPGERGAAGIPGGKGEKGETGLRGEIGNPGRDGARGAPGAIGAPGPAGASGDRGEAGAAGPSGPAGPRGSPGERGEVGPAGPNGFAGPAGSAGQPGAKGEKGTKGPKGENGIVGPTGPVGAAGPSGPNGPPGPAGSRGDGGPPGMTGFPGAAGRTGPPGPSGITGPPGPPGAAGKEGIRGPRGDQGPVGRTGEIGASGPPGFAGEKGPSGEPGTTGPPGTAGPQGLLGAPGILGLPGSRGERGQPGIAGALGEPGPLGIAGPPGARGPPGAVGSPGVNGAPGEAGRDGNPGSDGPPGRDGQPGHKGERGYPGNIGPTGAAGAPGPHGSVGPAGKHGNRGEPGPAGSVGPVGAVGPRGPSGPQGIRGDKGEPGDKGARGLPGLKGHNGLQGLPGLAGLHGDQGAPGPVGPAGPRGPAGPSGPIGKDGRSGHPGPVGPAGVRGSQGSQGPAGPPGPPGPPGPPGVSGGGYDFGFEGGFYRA

Regarding `CC[C@H](C)[C@H](NC(=O)[C@H](CCC(=O)O)NC(=O)[C@H](CCC(=O)O)NC(=O)[C@H](Cc1ccccc1)NC(=O)[C@H](CC(=O)O)NC(=O)CNC(=O)[C@H](CO)NC(=O)CNC(=O)[C@H](CO)NC(=O)CNC(=O)[C@H](CO)NC(=O)CNC(=O)[C@H](CO)NC(=O)CNC(=O)[C@H](CO)NC(=O)CNC(=O)[C@H](CO)NC(=O)CNC(=O)[C@H](CO)NC(=O)CNC(=O)[C@H](CO)NC(=O)CNC(=O)[C@H]1CCCCN1C(=O)[C@H](CCCNC(=N)N)NS(=O)(=O)c1ccc(C(C)(C)C)cc1)C(=O)N1CCC[C@H]1C(=O)N[C@@H](CCC(=O)O)C(=O)N[C@@H](CCC(=O)O)C(=O)N[C@@H](Cc1ccc(O)cc1)C(=O)N[C@@H](CC(C)C)C(=O)N[C@@H](CCC(N)=O)C(=O)O` [BTI1], the “punfold (population of unfolded/open linker)” value in data set [1] (T = 21° C.) and in data set [1] (T = 37° C.) was 1 throughout. The Kd at Human α-thrombin (T = 21° C.) came out at 0.53 ± 0.03 nM; at Human α-thrombin (T = 37° C.), 1.3 ± 0.3 nM. Also, the Ki is 0.53 ± 0.03 nM at Human α-thrombin (Ki, T = 21° C.) and 1.3 ± 0.3 nM on Human α-thrombin (T = 37° C., read-out: Ki).

For “GEWTYDDATKTFTVTE (not fully specified (C-terminus)) [gb1]”, the “reduction of deuterium coupling constant (degree of collagen fibril alignment)” value with rat-tail collagen type I is listed as “not significantly affected”. For the same molecule, the “population of unfolded species, non-zero ΔCp taken into account” value in data set [2] (21° C.) is on record as 0.7; in data set [2] (37° C.), 0.85.
